Converted amounts (≈) assume the structure as drawn.
Legend:
Bacillus subtilis [1] = test: Antibacterial activity against Bacillus subtilis assessed as zone of inhibition at 50 microg/ml by cup plate analysis; type: functional; conditions: read-out: IZ
Bacillus pumilus = test: Antibacterial activity against Bacillus pumilus assessed as zone of inhibition at 50 microg/ml by cup plate analysis; type: functional; conditions: read-out: IZ
Escherichia coli [2] = test: Antibacterial activity against Escherichia coli assessed as zone of inhibition at 50 microg/ml by cup plate analysis; type: functional; conditions: read-out: IZ
Proteus vulgaris [3] = test: Antibacterial activity against Proteus vulgaris assessed as zone of inhibition at 50 microg/ml by cup plate analysis; type: functional; conditions: read-out: IZ
Enterococcus raffinosus = test: Antibacterial activity against Enterococcus raffinosus assessed as bacterial growth inhibition incubated for 24 hrs by CLSI protocol based Mueller-Hinton broth assay; type: functional
Staphylococcus aureus [4] = test: Antibacterial activity against Staphylococcus aureus assessed as bacterial growth inhibition incubated for 24 hrs by CLSI protocol based Mueller-Hinton broth assay; type: functional
Salmonella typhimurium [5] = test: Antibacterial activity against Salmonella typhimurium DT104 assessed as reduction in bacterial growth; type: functional, Salmonella enterica subsp. enterica serovar Typhimurium; conditions: Salmonella enterica
Escherichia coli [6] = test: Antibacterial activity against Escherichia coli ATCC 25922 assessed as bacterial growth inhibition; type: functional
Staphylococcus aureus [7] = test: Antibacterial activity against Staphylococcus aureus ATCC 3750 assessed as reduction in bacterial growth; type: functional
Bacillus subtilis [8] = test: Antibacterial activity against Bacillus subtilis 6633 assessed as reduction in bacterial growth; type: functional
Bacillus subtilis [9] = test: Antibacterial activity against Bacillus subtilis ATCC 465 assessed as reduction in bacterial growth measured after 24 hrs by Mueller-Hinton broth assay; type: functional
Pseudomonas aeruginosa [10] = test: Antibacterial activity against Pseudomonas aeruginosa ATCC 85327 assessed as reduction in bacterial growth measured after 24 hrs by Mueller-Hinton broth assay; type: functional
Staphylococcus aureus [11] = test: microbe, parasite or virus in culture; conditions: ATCC 25923, 24 h
Description: Antibacterial activity against Staphylococcus aureus ATCC 25923 assessed as reduction in bacterial growth measured after 24 hrs by Mueller-Hinton broth assay

Escherichia coli [12] = test: microbe, parasite or virus in culture; conditions: ATCC 25922, 24 h
Description: Antibacterial activity against Escherichia coli ATCC 25922 assessed as reduction in bacterial growth measured after 24 hrs by Mueller-Hinton broth assay

Pseudomonas aeruginosa [13] = test: Antibacterial activity against Pseudomonas aeruginosa; type: functional
Bacillus subtilis [14] = test: Antibacterial activity against Bacillus subtilis assessed as reduction in microbial growth by measuring zone of inhibition; type: functional
Salmonella typhimurium [15] = test: Antibacterial activity against Salmonella typhimurium DT104 assessed as reduction in bacterial growth inhibition measured after 24 hrs by Mueller Hinton Agar dilution method; type: functional, Salmonella enterica subsp. enterica serovar Typhimurium; conditions: Salmonella enterica
Vibrio parahaemolyticus = test: Antibacterial activity against Vibrio parahaemolyticus assessed as reduction in bacterial growth inhibition measured after 24 hrs by Mueller Hinton Agar dilution method; type: functional
[16] = test system: Salmonella enterica subsp. enterica serovar Paratyphi B; test: Antibacterial activity against Salmonella paratyphi B CICC 21495 assessed as reduction in […]; type: functional; conditions: time lower 48 hrs
Edwardsiella tarda = test: Antimicrobial activity against Edwardsiella tarda assessed as inhibition of microbial growth incubated for 18 hrs by CLSI protocol based Mueller-Hinton broth assay; type: functional
Vibrio cholerae [17] = test: Antibacterial activity against Vibrio cholerae assessed as inhibition of bacterial growth incubated for 24 hrs by broth microdilution method; type: functional
Staphylococcus aureus [18] = test: Antimicrobial activity against Staphylococcus aureus assessed as inhibition of microbial growth incubated for 18 hrs by CLSI protocol based Mueller-Hinton broth assay; type: functional
Escherichia coli [19] = test: Antimicrobial activity against Escherichia coli assessed as inhibition of microbial growth incubated for 18 hrs by CLSI protocol based Mueller-Hinton broth assay; type: functional
Vibrio cholerae [20] = test: Antibacterial activity against Vibrio cholerae measured after 18 to 20 hrs by broth microdilution method; type: functional; conditions: time 18-20 hrs
Enterococcus faecalis = test: Antimicrobial activity against Enterococcus faecalis assessed as inhibition of microbial growth incubated for 18 hrs by CLSI protocol based Mueller-Hinton broth assay; type: functional
Salmonella typhimurium [21] = test: Antimicrobial activity against Salmonella typhimurium DT104 assessed as inhibition of microbial growth incubated for 18 hrs by CLSI protocol based Mueller-Hinton broth assay; type: functional, Salmonella enterica subsp. enterica serovar Typhimurium; conditions: Salmonella enterica
Pseudomonas aeruginosa [22] = test: Antimicrobial activity against Pseudomonas aeruginosa assessed as inhibition of microbial growth incubated for 18 hrs by CLSI protocol based Mueller-Hinton broth assay; type: functional
Klebsiella pneumoniae = test: Antimicrobial activity against Klebsiella pneumoniae assessed as inhibition of microbial growth incubated for 18 hrs by CLSI protocol based Mueller-Hinton broth assay; type: functional
[23] = test system: Staphylococcus epidermidis; test: Antimicrobial activity against Staphylococcus epidermidis assessed as inhibition of microbial growth incubated for 18 hrs by CLSI protocol based Mueller-Hinton broth assay; type: functional
Salmonella enterica = test: Antimicrobial activity against Salmonella enterica assessed as inhibition of microbial growth incubated for 18 hrs by CLSI protocol based Mueller-Hinton broth assay; type: functional
Aeromonas hydrophila = test: Antibacterial activity against Aeromonas hydrophila assessed as inhibition of microbial growth incubated for 24 hrs by CLSI protocol based Mueller-Hinton broth assay; type: functional
Vibrio cholerae [24] = test: Antibacterial activity against Vibrio cholerae assessed as reduction in bacterial growth measured after 18 to 20 hrs by broth microdilution method; type: functional; conditions: time 18-20 hrs
Bacillus subtilis [25] = test: Antibacterial activity against Bacillus subtilis assessed as reduction in bacterial growth incubated for 24 hrs by CLSI protocol based Mueller-Hinton broth assay; type: functional
Shigella sonnei = test: Antibacterial activity against Shigella sonnei assessed as inhibition of bacterial growth measured after 18 to 20 hrs by broth microdilution method; type: functional; conditions: time 18-20 hrs
Shigella boydii = test: Antibacterial activity against Shigella boydii assessed as inhibition of bacterial growth measured after 18 to 20 hrs by broth microdilution method; type: functional; conditions: time 18-20 hrs
Plesiomonas shigelloides = test: Antibacterial activity against Plesiomonas shigelloides assessed as inhibition of bacterial growth measured after 18 to 20 hrs by broth microdilution method; type: functional; conditions: time 18-20 hrs
Providencia rettgeri = test: Antibacterial activity against Providencia rettgeri assessed as bacterial growth inhibition incubated for 18 hrs by CLSI protocol based Mueller-Hinton broth assay; type: functional
Shigella flexneri = test: Antibacterial activity against Shigella flexneri assessed as inhibition of bacterial growth incubated for 24 hrs by broth microdilution method; type: functional
Proteus vulgaris [26] = test: Antimicrobial activity against Proteus vulgaris assessed as microbial growth inhibition incubated for 24 hrs by broth microdilution method; type: functional
Enterobacter sp. = test: Antibacterial activity against Enterobacter sp. assessed as inhibition of bacterial growth; type: functional
Morganella morganii [27] = test: Antibacterial activity against Morganella morganii UM869 incubated for 16 to 18 hrs by broth microdilution method; type: functional; conditions: time 16-18 hrs
Citrobacter freundii = test: Antibacterial activity against multidrug-resistant Citrobacter freundii assessed as bacterial growth inhibition incubated for 20 to 22 hrs by CLSI based analysis; type: functional; conditions: time 20-22 hrs
Morganella morganii [28] = test: Antibacterial activity against Morganella morganii UM573 assessed as bacterial growth inhibition incubated for 20 to 22 hrs by CLSI based analysis; type: functional; conditions: time 20-22 hrs
Salmonella paratyphi = test: Antibacterial activity against Salmonella paratyphi A CICC 21501 incubated overnight by standard microtiter dilution method; type: functional, Salmonella enterica subsp. enterica serovar Paratyphi A; conditions: Salmonella enterica
Micrococcus luteus = test: Antimicrobial activity against Micrococcus luteus assessed as diameter of inhibition zone incubated for 24 hrs by well diffusion assay; type: functional
Pseudomonas aeruginosa [29] = test: Antimicrobial activity against Pseudomonas aeruginosa assessed as diameter of inhibition zone incubated for 24 hrs by well diffusion assay; type: functional
Bacillus subtilis [30] = test: Antimicrobial activity against Bacillus subtilis assessed as diameter of inhibition zone incubated for 24 hrs by well diffusion assay; type: functional
Pseudomonas aeruginosa [31] = test: Antibacterial activity against Pseudomonas aeruginosa assessed as inhibition of microbial growth by broth micro-dilution method; type: functional
Escherichia coli [32] = test: Antibacterial activity against Escherichia coli assessed as inhibition of microbial growth by broth micro-dilution method; type: functional
Staphylococcus aureus [33] = test: Antibacterial activity against Staphylococcus aureus assessed as inhibition of microbial growth by broth micro-dilution method; type: functional
Streptococcus pyogenes = test: Antibacterial activity against Streptococcus pyogenes assessed as inhibition of microbial growth by broth micro-dilution method; type: functional
Staphylococcus aureus [34] = test: Antibacterial activity against Staphylococcus aureus assessed as bacterial growth inhibition by measuring zone of inhibition at 50 ug/ml by agar cup diffusion assay; type: functional; conditions: read-out: IZ
Escherichia coli [35] = test: Antibacterial activity against Escherichia coli assessed as bacterial growth inhibition by measuring zone of inhibition at 50 ug/ml by agar cup diffusion assay; type: functional; conditions: read-out: IZ
Salmonella typhimurium [36] = test: Antibacterial activity against Salmonella typhimurium DT104 assessed as bacterial growth inhibition by measuring zone of inhibition at 50 ug/ml by agar cup diffusion assay; type: functional, Salmonella enterica subsp. enterica serovar Typhimurium; conditions: Salmonella enterica, read-out: IZ
Bacillus subtilis [37] = test: Antibacterial activity against Bacillus subtilis assessed as bacterial growth inhibition by measuring zone of inhibition at 50 ug/ml by agar cup diffusion assay; type: functional; conditions: read-out: IZ

CN(C)c1ccc(-c2cc(-c3ccsc3)nc(N)n2)cc1
zone of inhibition at 50 µg/mL (Bacillus subtilis [1]): 15 mm
zone of inhibition at 50 µg/mL (Bacillus pumilus): 12 mm
zone of inhibition at 50 µg/mL (Escherichia coli [2]): 11 mm
zone of inhibition at 50 µg/mL (Proteus vulgaris [3]): 12 mm

CC1(C)S[C@@H]2[C@H](NC(=O)Cc3ccccc3)C(=O)N2[C@H]1C(=O)O [PENICILLIN G]
MIC (Enterococcus raffinosus): 93.5 µg/mL (≈ 280 µM)
MIC (Staphylococcus aureus [4]): 24.4 µg/mL (≈ 73 µM)
zone of inhibition at 50 µg/mL (Bacillus subtilis [1]): 25 mm
zone of inhibition at 50 µg/mL (Bacillus pumilus): 29 mm
zone of inhibition at 50 µg/mL (Escherichia coli [2]): 26 mm
zone of inhibition at 50 µg/mL (Proteus vulgaris [3]): 28 mm
MIC (Salmonella typhimurium [5]): 5 µg/mL (≈ 15 µM)
MIC (Escherichia coli [6]): 5 µg/mL (≈ 15 µM)
MIC (Staphylococcus aureus [7]): 6 µg/mL (≈ 17.9 µM)
MIC (Bacillus subtilis [8]): 22 µg/mL (≈ 65.8 µM)

N#Cc1nc2[nH]c(=O)[nH]c(=O)c2c(-c2ccc(Cl)cc2)c1N
MIC (Bacillus subtilis [9]): 8 µg/mL (≈ 25.5 µM)
MIC (Pseudomonas aeruginosa [10]): 512 µg/mL (≈ 1630 µM)
MIC (Staphylococcus aureus [11]): 2 µg/mL (≈ 6.38 µM)
MIC (Escherichia coli [12]): 512 µg/mL (≈ 1630 µM)

GENTAMICIN
MIC (Bacillus subtilis [9]): 0.125 µg/mL
MIC (Pseudomonas aeruginosa [10]): 1 µg/mL
MIC (Pseudomonas aeruginosa [13]): 0.98 µg/mL
inhibition zone (IZ) (Bacillus subtilis [14]): 24 mm

Cc1cc(NS(=O)(=O)c2ccc(N)cc2)no1 [SULFAMETHOXAZOLE]
MIC (Salmonella typhimurium [15]): 5000 µg/mL (≈ 19700 µM)
MIC (Vibrio parahaemolyticus): 1250 µg/mL (≈ 4940 µM)
MIC [16]: 5000 µg/mL (≈ 19700 µM)
MIC (Edwardsiella tarda): 5000 µg/mL
MIC (Vibrio cholerae [17]): > 5000 µg/mL
MIC (Staphylococcus aureus [18]): 5000 µg/mL
MIC (Escherichia coli [19]): 2500 µg/mL
MIC (Vibrio cholerae [20]): 312 µg/mL (≈ 1230 µM)
MIC (Enterococcus faecalis): 5000 µg/mL
MIC (Salmonella typhimurium [21]): 2500 µg/mL
MIC (Pseudomonas aeruginosa [22]): 78.1 µg/mL
MIC (Klebsiella pneumoniae): 2500 µg/mL
MIC [23]: 2500 µg/mL
MIC (Salmonella enterica): 2500 µg/mL
MIC (Aeromonas hydrophila): 2500 µg/mL
MIC (Vibrio cholerae [24]): 5000 µg/mL (≈ 19700 µM)
MIC (Bacillus subtilis [25]): 5000 µg/mL (≈ 19700 µM)
MIC (Shigella sonnei): 2500 µg/mL (≈ 9870 µM)
MIC (Shigella boydii): 2500 µg/mL (≈ 9870 µM)
MIC (Plesiomonas shigelloides): 5000 µg/mL (≈ 19700 µM)
MIC (Providencia rettgeri): 2500 µg/mL (≈ 9870 µM)
MIC (Shigella flexneri): 2500 µg/mL (≈ 9870 µM)
MIC (Proteus vulgaris [26]): 2500 µg/mL (≈ 9870 µM)
MIC (Enterobacter sp.): 1250 µg/mL (≈ 4940 µM)
MIC (Morganella morganii [27]): 2500 µg/mL (≈ 9870 µM)
MIC (Citrobacter freundii): 5000 µg/mL (≈ 19700 µM)
MIC (Morganella morganii [28]): 5000 µg/mL (≈ 19700 µM)
MIC (Salmonella paratyphi): 2500 µg/mL (≈ 9870 µM)

Nc1nc(-c2ccc(F)cc2)cc(-c2ccsc2)n1
zone of inhibition at 50 µg/mL (Bacillus subtilis [1]): 17 mm
zone of inhibition at 50 µg/mL (Bacillus pumilus): 14 mm
zone of inhibition at 50 µg/mL (Escherichia coli [2]): 13 mm
zone of inhibition at 50 µg/mL (Proteus vulgaris [3]): 14 mm

Oc1ncnc(O)c1/N=N/c1ccc(/N=N/c2ccccc2)cc1
inhibition zone (IZ) (Micrococcus luteus): 18 mm
inhibition zone (IZ) (Pseudomonas aeruginosa [29]): 12 mm
inhibition zone (IZ) (Bacillus subtilis [30]): 13 mm

O=C(N[C@H](CO)[C@H](O)c1ccc([N+](=O)[O-])cc1)C(Cl)Cl [CHLORAMPHENICOL]
MIC (Pseudomonas aeruginosa [31]): 50 µg/mL
MIC (Escherichia coli [32]): 50 µg/mL
MIC (Staphylococcus aureus [33]): 50 µg/mL
MIC (Streptococcus pyogenes): 50 µg/mL
MIC (Bacillus subtilis [9]): 4 µg/mL (≈ 12.4 µM)
MIC (Pseudomonas aeruginosa [10]): 256 µg/mL (≈ 792 µM)
zone of inhibition at 50 µg/mL (Staphylococcus aureus [34]): 25 mm
zone of inhibition at 50 µg/mL (Escherichia coli [35]): 18 mm
zone of inhibition at 50 µg/mL (Salmonella typhimurium [36]): 24 mm
zone of inhibition at 50 µg/mL (Bacillus subtilis [37]): 20 mm
MIC (Salmonella typhimurium [5]): 6 µg/mL (≈ 18.6 µM)
MIC (Escherichia coli [6]): 4 µg/mL (≈ 12.4 µM)
MIC (Staphylococcus aureus [7]): 5 µg/mL (≈ 15.5 µM)
MIC (Bacillus subtilis [8]): 6 µg/mL (≈ 18.6 µM)
MIC (Staphylococcus aureus [11]): 8 µg/mL (≈ 24.8 µM)
MIC (Escherichia coli [12]): 4 µg/mL (≈ 12.4 µM)

— ChEMBL document CHEMBL5532639, “Heterocyclic pyrimidine derivatives as promising antibacterial agents” (Eur J Med Chem, 2023)
